Measured values published in publication PMC9863901, “CX08005, a Protein Tyrosine Phosphatase 1B Inhibitor, Attenuated Hepatic Lipid Accumulation and Microcirculation Dysfunction Associated with Nonalcoholic Fatty Liver Disease” (Pharmaceuticals, 2023).

Target: T1, Protein tyrosine phosphatase 1B (PTP1B) (Homo sapiens, UniProt P18031)
T1 construct: gene PTPN1; recombinant human His-PTP1B protein
T1 sequence (P18031 1-435): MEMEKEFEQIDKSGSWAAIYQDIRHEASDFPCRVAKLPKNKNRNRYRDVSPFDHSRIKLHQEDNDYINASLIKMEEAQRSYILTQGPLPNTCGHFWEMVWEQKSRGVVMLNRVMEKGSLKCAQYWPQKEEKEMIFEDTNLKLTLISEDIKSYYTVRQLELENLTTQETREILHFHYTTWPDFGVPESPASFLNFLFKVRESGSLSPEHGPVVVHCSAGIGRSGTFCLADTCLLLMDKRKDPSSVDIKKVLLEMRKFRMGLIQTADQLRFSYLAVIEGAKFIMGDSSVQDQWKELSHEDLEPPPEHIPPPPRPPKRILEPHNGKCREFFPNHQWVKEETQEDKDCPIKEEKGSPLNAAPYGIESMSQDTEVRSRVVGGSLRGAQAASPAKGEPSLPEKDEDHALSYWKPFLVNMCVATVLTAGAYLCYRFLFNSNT
Test: pNPP phosphatase assay with recombinant His-PTP1B, absorbance at […] nm
Assay type: biochemical

**Q.** `CCCCCCCCCCCCCCOc1ccccc1NC(=O)c1ccccc1C(=O)O` [CX08005] was tested. Which IC50 did it give?
**A.** 750 ± 70 nM
